# Test results from US8642801B2 (BHI Limited Partnership, priority 2003, dated 2014).
# Target: T1, Aβ40 and Aβ42 peptides in plasma and brain of TgCRND8 mice (Homo sapiens, UniProt P05067)
# T1 construct: ELISA using Human Aβ40 and Aβ42 Fluorometric ELISA kits from Biosource; from tissue; host or cells: plasma and brain homogenate of TgCRND8 transgenic mice (hAPP transgene)
# Experiment: Long term treatment in adult transgenic CRND8 mice overexpressing βAPP: Aβ levels in plasma and brain by ELISA
# Format: in vivo, Mouse
# Settings: BX subcutaneous, BW and BZ oral, vs vehicle or methylcellulose control
# Source text: Transgenic mice, TgCRND8, as those used in the short term treatment, overexpress a human APP gene with the Swedish and Indiana mutations leading to the production of high levels of the amyloid peptides and to the development of an early-onset, aggressive development of brain amyloidosis. The high levels of Aβ peptides and the relative overabundance of Aβ42 compared to Aβ40 are believed to be associated with the severe and early degenerative pathology observed. The pattern of amyloid deposition, presence of dystrophic neuritis, and cognitive deficit has been well documented in this transgenic mouse line. The levels of Aβ peptides in the brain of these mice increase dramatically as the animals age. While the total amyloid peptide levels increase from ˜1.6×10^5 pg/g of brain to ˜3.8×10^6 between 9 and 17 weeks of age.
# The long-term therapeutic effects of compounds of the present invention on cerebral amyloid deposition and β-amyloid (Aβ) levels in the plasma and in the brains of transgenic mice, TgCRND8, expressing the human amyloid precursor protein (hAPP) was studied. These compounds were administered over an 8 or 16 week period at the end of which the levels of Aβ peptides in the plasma and brain of TgCRND8 animals were determined. The goal of this study was to evaluate the efficacy of the compounds at modulating the progression of the amyloidogenic process in the brain and in the plasma of a transgenic mouse model of Alzheimer's disease (AD)
# The mice used in the study consisted of animals bearing one copy of the hAPP gene (+/−) from the 2nd and 3rd generation progenies (N2 and N3) derived from backcrosses from TgCRND8.FVB(N2)AJ(N3) with B6AF1/J hybrid animals. N1=TgCRND8.FVB(N2)AJ(N3)×B6AF1/J N2=TgCRND8.FVB(N2)AJ(N3).B6AF1/J(N1)×B6AF1/J N3=TgCRND8.FVB(N2)AJ(N3).B6AF1/J(N2)×B6AF1/a
# The following abbreviations are used to designate these animals in the present study: TgCRND8.B6AF1/J(N2); TgCRND8.B6AF1/J(N3). Male and female transgenic mice were given daily subcutaneous (compound BX) or oral (compounds BW and BZ) administrations of the appropriate compounds for 8 or 16 weeks.
# Baseline animals consisted of 9±1 week old naive TgCRND8.B6AF1/J animals from the 2nd and 3rd generations. These mice were used to determine the extent of cerebral amyloid deposits and Aβ levels in the plasma and brain of naive transgenic animals at the initiation of treatment.
# Starting at 9 weeks of age (±1 week) animals received daily administration of their respective treatment for a period of 8 or 16 weeks, at a dose of 30 or 100 mg/kg at 10 ml/kg. The route of administration was subcutaneous for water-soluble compounds (Compound BX) and oral for compounds solubilized in methylcellulose 1% (MC 1%) (Compounds BW and BZ). At the end of the treatment periods, plasma and perfused brains were collected for quantification of Aβ levels.
# Animal health was monitored, samples were collected and Aβ levels were measured as described above in the short term treatment study. Compounds were scored based on their ability to modulate levels of Aβ peptides in the plasma and the cerebral soluble/insoluble levels in the brain. Levels of Aβ observed in the plasma and brain of treated animals were compared to that of vehicle-treated (water) or methylcellulose-treated control groups and ranked according to the strength of the pharmacological effect. Increases in the levels of Aβ peptides are indicated using “+” symbols, while decreases in the levels of Aβ peptides are indicated using “−” symbols. The strongest effects are recorded as “+++” or “−−−” while the weakest are shown as “+” or “−”.
# Specifically, increases in the levels of Aβ (relative to vehicle treated control) of 5 to 14% are scored as “+”; increases of 15 to 29% are scored as “++”; and increases of 30% or higher are scored as “+++”. Decreases in the levels of Aβ of 5 to 14% are scored as “−”; decreases of 15 to 29% are scored as “−−”; and decreases of 30% or more are scored as “−−−”. […]
SMILES,"Brain Abeta40 insoluble (30 mg/kg daily, 8 wks)","Brain Abeta40 soluble (30 mg/kg daily, 8 wks)","Brain Abeta42 insoluble (30 mg/kg daily, 8 wks)","Brain Abeta42 soluble (30 mg/kg daily, 8 wks)","Plasma Abeta40 (30 mg/kg daily, 8 wks)","Plasma Abeta42 (30 mg/kg daily, 8 wks)","Brain Abeta40 insoluble (30 mg/kg daily, 16 wks)","Brain Abeta40 soluble (30 mg/kg daily, 16 wks)","Brain Abeta42 insoluble (30 mg/kg daily, 16 wks)","Brain Abeta42 soluble (30 mg/kg daily, 16 wks)","Plasma Abeta40 (30 mg/kg daily, 16 wks)","Plasma Abeta42 (30 mg/kg daily, 16 wks)","Brain Abeta40 insoluble (100 mg/kg daily, 8 wks)","Brain Abeta40 soluble (100 mg/kg daily, 8 wks)","Brain Abeta42 insoluble (100 mg/kg daily, 8 wks)","Brain Abeta42 soluble (100 mg/kg daily, 8 wks)","Plasma Abeta40 (100 mg/kg daily, 8 wks)","Plasma Abeta42 (100 mg/kg daily, 8 wks)","Brain Abeta40 insoluble (100 mg/kg daily, 16 wks)","Brain Abeta40 soluble (100 mg/kg daily, 16 wks)",also measured
"O=S(=O)(O)CCCNC12CC3CC(CC(C3)C1)C2 [BW, 3-(1-adamantyl)amino-1-propanesulfonic acid]",−− (decreases of 15 to 29% are scored as “−−”),− (Decreases in the levels of Aβ of 5 to 14% are scored as “−”),0 (changes of 4% or less in either direction are scored as “0”),−− (decreases of 15 to 29% are scored as “−−”),−−− (decreases of 30% or more are scored as “−−−”),−−− (decreases of 30% or more are scored as “−−−”),++ (increases of 15 to 29% are scored as “++”),+ (increases in the levels of Aβ (relative to vehicle treated control) of 5 to 14% are scored as “+”),+ (increases in the levels of Aβ (relative to vehicle treated control) of 5 to 14% are scored as “+”),− (Decreases in the levels of Aβ of 5 to 14% are scored as “−”),−− (decreases of 15 to 29% are scored as “−−”),−− (decreases of 15 to 29% are scored as “−−”),−−− (decreases of 30% or more are scored as “−−−”),−− (decreases of 15 to 29% are scored as “−−”),−−− (decreases of 30% or more are scored as “−−−”),−− (decreases of 15 to 29% are scored as “−−”),− (Decreases in the levels of Aβ of 5 to 14% are scored as “−”),− (Decreases in the levels of Aβ of 5 to 14% are scored as “−”),+ (increases in the levels of Aβ (relative to vehicle treated control) of 5 to 14% are scored as “+”),++ (increases of 15 to 29% are scored as “++”),"Brain Abeta42 insoluble (100 mg/kg daily, 16 wks): ++ (increases of 15 to 29% are scored as “++”); Brain Abeta42 soluble (100 mg/kg daily, 16 wks): + (increases in the levels of Aβ (relative to vehicle treated control) of 5 to 14% are scored as “+”); Plasma Abeta40 (100 mg/kg daily, 16 wks): − (Decreases in the levels of Aβ of 5 to 14% are scored as “−”); Plasma Abeta42 (100 mg/kg daily, 16 wks): − (Decreases in the levels of Aβ of 5 to 14% are scored as “−”)"
"CC(C)(C)NCCCS(=O)(=O)O [BX, 3-(t-butyl)amino-1-propanesulfonic acid]",−−− (decreases of 30% or more are scored as “−−−”),−−− (decreases of 30% or more are scored as “−−−”),−− (decreases of 15 to 29% are scored as “−−”),−−− (decreases of 30% or more are scored as “−−−”),+ (increases in the levels of Aβ (relative to vehicle treated control) of 5 to 14% are scored as “+”),+ (increases in the levels of Aβ (relative to vehicle treated control) of 5 to 14% are scored as “+”),−−− (decreases of 30% or more are scored as “−−−”),−− (decreases of 15 to 29% are scored as “−−”),− (Decreases in the levels of Aβ of 5 to 14% are scored as “−”),0 (changes of 4% or less in either direction are scored as “0”),− (Decreases in the levels of Aβ of 5 to 14% are scored as “−”),− (Decreases in the levels of Aβ of 5 to 14% are scored as “−”),++ (increases of 15 to 29% are scored as “++”),+ (increases in the levels of Aβ (relative to vehicle treated control) of 5 to 14% are scored as “+”),0 (changes of 4% or less in either direction are scored as “0”),+ (increases in the levels of Aβ (relative to vehicle treated control) of 5 to 14% are scored as “+”),++ (increases of 15 to 29% are scored as “++”),+++ (increases of 30% or higher are scored as “+++”),−−− (decreases of 30% or more are scored as “−−−”),− (Decreases in the levels of Aβ of 5 to 14% are scored as “−”),"Brain Abeta42 insoluble (100 mg/kg daily, 16 wks): −− (decreases of 15 to 29% are scored as “−−”); Brain Abeta42 soluble (100 mg/kg daily, 16 wks): 0 (changes of 4% or less in either direction are scored as “0”); Plasma Abeta40 (100 mg/kg daily, 16 wks): − (Decreases in the levels of Aβ of 5 to 14% are scored as “−”); Plasma Abeta42 (100 mg/kg daily, 16 wks): 0 (changes of 4% or less in either direction are scored as “0”)"
"O=S(=O)(O)CCCNC1C2CC3CC(C2)CC1C3 (stereo not drawn) [BZ, 3-(2-adamantyl)amino-1-propanesulfonic acid]",−− (decreases of 15 to 29% are scored as “−−”),0 (changes of 4% or less in either direction are scored as “0”),−−− (decreases of 30% or more are scored as “−−−”),0 (changes of 4% or less in either direction are scored as “0”),0 (changes of 4% or less in either direction are scored as “0”),0 (changes of 4% or less in either direction are scored as “0”),+ (increases in the levels of Aβ (relative to vehicle treated control) of 5 to 14% are scored as “+”),0 (changes of 4% or less in either direction are scored as “0”),0 (changes of 4% or less in either direction are scored as “0”),+ (increases in the levels of Aβ (relative to vehicle treated control) of 5 to 14% are scored as “+”),0 (changes of 4% or less in either direction are scored as “0”),+ (increases in the levels of Aβ (relative to vehicle treated control) of 5 to 14% are scored as “+”),0 (changes of 4% or less in either direction are scored as “0”),++ (increases of 15 to 29% are scored as “++”),− (Decreases in the levels of Aβ of 5 to 14% are scored as “−”),0 (changes of 4% or less in either direction are scored as “0”),++ (increases of 15 to 29% are scored as “++”),+++ (increases of 30% or higher are scored as “+++”),0 (changes of 4% or less in either direction are scored as “0”),−− (decreases of 15 to 29% are scored as “−−”),"Brain Abeta42 insoluble (100 mg/kg daily, 16 wks): + (increases in the levels of Aβ (relative to vehicle treated control) of 5 to 14% are scored as “+”); Brain Abeta42 soluble (100 mg/kg daily, 16 wks): − (Decreases in the levels of Aβ of 5 to 14% are scored as “−”); Plasma Abeta40 (100 mg/kg daily, 16 wks): ++ (increases of 15 to 29% are scored as “++”); Plasma Abeta42 (100 mg/kg daily, 16 wks): ++ (increases of 15 to 29% are scored as “++”)"
